Measured values: article doi:10.1101/2024.08.19.608619, “Discovery of potent SARS-CoV-2 nsp3 macrodomain inhibitors uncovers lack of translation to cellular antiviral response” (bioRxiv, 2024)
Read-outs that look alike come from different tables or passages of the source.

Legend:
[1] = target: T1, SARS-CoV-2 nsp3-mac1 (Severe acute respiratory syndrome coronavirus 2, UniProt P0DTD1); test: biochemical; assay type: biochemical; conditions: SARS-CoV-2 nsp3 macrodomain TR-FRET single point
[2] = target: T1, SARS-CoV-2 nsp3-mac1; test: biochemical; design: SARS-CoV-2 nsp3 macrodomain TR-FRET single point, per cent inhibition, n=2
[3] = read-out: perc_inhibition_mean, batch_name=ASAP-0000280-001
[4] = read-out: perc_inhibition_mean, batch_name=ASAP-0000302-001
[5] = read-out: perc_inhibition_mean, batch_name=ASAP-0000365-001
[6] = read-out: perc_inhibition_mean, batch_name=ASAP-0000383-001
[7] = read-out: perc_inhibition_mean, batch_name=ASAP-0000303-001
[8] = read-out: perc_inhibition_mean, batch_name=ASAP-0000301-001
[9] = read-out: perc_inhibition_mean, batch_name=ASAP-0000311-001
[10] = read-out: perc_inhibition_mean, batch_name=ASAP-0000397-001
[11] = read-out: perc_inhibition_mean, batch_name=ASAP-0000381-001
[12] = read-out: perc_inhibition_mean, batch_name=ASAP-0000243-001
[13] = read-out: perc_inhibition_mean, batch_name=ASAP-0000331-001

O=C(c1ccccc1)N1CCC(c2ccn3ncc(C(=O)N4CCc5nc[nH]c5C4)c3c2)CC1 [ASAP-0000280]
perc_inhibition_mean ([1]; concentration 49.75 uM, n=2): 11.216%
perc_inhibition_mean ([1]; concentration 99.5 uM, n=2): 20.268%
inhibition at 49.75 µM [2, 3]: 11.2%
inhibition at 99.5 µM [2, 3]: 20.3%

FC(F)(F)CO[C@@H]1CCCN(c2ncnc3[nH]ccc23)C1 [ASAP-0000075]
perc_inhibition_mean ([1]; concentration 50.0 uM): 22.218%
inhibition at 50 µM ([2]; read-out: perc_inhibition_mean, batch_name=ASAP-0000075-001): 22.2%

C[C@@H]1[C@H](O)CCCN1C(=O)c1ccc(NC(=O)Nc2ccccc2)cc1 [ASAP-0000302]
perc_inhibition_mean ([1]; concentration 49.75 uM, n=2): -2.963%
perc_inhibition_mean ([1]; concentration 99.5 uM, n=2): -2.724%
inhibition at 49.75 µM [2, 4]: -2.96%
inhibition at 99.5 µM [2, 4]: -2.72%

C[C@@H](O)[C@@H]1CN(C(=O)c2ncnc3[nH]ccc23)CCO1 [ASAP-0000073]
perc_inhibition_mean ([1]; concentration 50.0 uM): -3.131%
inhibition at 50 µM ([2]; read-out: perc_inhibition_mean, batch_name=ASAP-0000073-001): -3.13%

c1ccc2sc(CNc3ncnc4[nH]ccc34)nc2c1 [ASAP-0000036]
perc_inhibition_mean ([1]; concentration 50.0 uM): -0.671%
inhibition at 50 µM ([2]; read-out: perc_inhibition_mean, batch_name=ASAP-0000036-001): -0.671%

Cc1ccc2ccccc2c1-c1ncnc2[nH]ccc12 [ASAP-0000365]
perc_inhibition_mean ([1]; concentration 49.75 uM): -5.321%
perc_inhibition_mean ([1]; concentration 99.5 uM): -9.099%
inhibition at 49.75 µM [2, 5]: -5.32%
inhibition at 99.5 µM [2, 5]: -9.1%

O=C(Nc1cnn(C2CCNCC2)c1)c1ncnc2[nH]ccc12 [ASAP-0000138]
perc_inhibition_mean ([1]; concentration 50.0 uM): -1.896%
inhibition at 50 µM ([2]; read-out: perc_inhibition_mean, batch_name=ASAP-0000138-001): -1.9%

O=C(c1c[nH]c(=O)cn1)N1CCC(c2ccn3ncc(C(=O)N4CCCCC4)c3c2)CC1 [ASAP-0000383]
perc_inhibition_mean ([1]; concentration 49.75 uM): -49.044%
perc_inhibition_mean ([1]; concentration 99.5 uM): 45.826%
inhibition at 49.75 µM [2, 6]: -49%
inhibition at 99.5 µM [2, 6]: 45.8%

O=C(Nc1ccccc1)Nc1ccc(C(=O)N2CCn3nccc3C2)cc1 [ASAP-0000303]
perc_inhibition_mean ([1]; concentration 49.75 uM, n=2): -3.111%
perc_inhibition_mean ([1]; concentration 99.5 uM, n=2): 2.299%
inhibition at 49.75 µM [2, 7]: -3.11%
inhibition at 99.5 µM [2, 7]: 2.3%

C[C@@H](CO)Nc1ncnc2[nH]c(C(=O)OC(C)(C)C)cc12 [ASAP-0000076]
perc_inhibition_mean ([1]; concentration 50.0 uM): 10.712%
inhibition at 50 µM ([2]; read-out: perc_inhibition_mean, batch_name=ASAP-0000076-001): 10.7%

O=C(Nc1ccc(O)cc1)Nc1ccc(Oc2ccccc2)cc1 [ASAP-0000069]
perc_inhibition_mean ([1]; concentration 50.0 uM): -3.306%
inhibition at 50 µM ([2]; read-out: perc_inhibition_mean, batch_name=ASAP-0000069-001): -3.31%

C[C@@H]1CN(C(=O)c2ccc(NC(=O)Nc3ccccc3)cc2)CC(=O)N1 [ASAP-0000301]
perc_inhibition_mean ([1]; concentration 49.75 uM, n=2): -0.707%
perc_inhibition_mean ([1]; concentration 99.5 uM, n=2): 0.29%
inhibition at 49.75 µM [2, 8]: -0.707%
inhibition at 99.5 µM [2, 8]: 0.29%

O=C(CCN(Cc1cccc(Cl)c1)C(=O)c1ccccc1F)N1CCNCC1 [ASAP-0000311]
perc_inhibition_mean ([1]; concentration 49.75 uM, n=2): -0.625%
perc_inhibition_mean ([1]; concentration 99.5 uM, n=2): 0.395%
inhibition at 49.75 µM [2, 9]: -0.625%
inhibition at 99.5 µM [2, 9]: 0.395%

O=C(CCN(Cc1cccc(Cl)c1)C(=O)c1ncccc1Cl)N1CCNCC1 [ASAP-0000397]
perc_inhibition_mean ([1]; concentration 49.75 uM): 2.753%
perc_inhibition_mean ([1]; concentration 99.5 uM): 7.518%
inhibition at 49.75 µM [2, 10]: 2.75%
inhibition at 99.5 µM [2, 10]: 7.52%

Cc1nn(C)c(C)c1[C@H]1COCCN1c1ncnc2[nH]ccc12 [ASAP-0000381]
perc_inhibition_mean ([1]; concentration 49.75 uM): -0.137%
perc_inhibition_mean ([1]; concentration 99.5 uM): -0.128%
inhibition at 49.75 µM [2, 11]: -0.137%
inhibition at 99.5 µM [2, 11]: -0.128%

CO[C@@]1(C(=O)O)CCN(C(=O)c2ncnc3[nH]ccc23)C1 [ASAP-0000243]
perc_inhibition_mean ([1]; concentration 50.0 uM): -4.181%
perc_inhibition_mean ([1]; concentration 100.0 uM): -3.71%
inhibition at 50 µM [2, 12]: -4.18%
inhibition at 100 µM [2, 12]: -3.71%

Cc1cnc(CCNc2ncnc3[nH]ncc23)c(C)c1 [ASAP-0000013]
perc_inhibition_mean ([1]; concentration 50.0 uM): 4.342%
inhibition at 50 µM ([2]; read-out: perc_inhibition_mean, batch_name=ASAP-0000013-001): 4.34%

CNC(=O)c1ccnc(NC(=O)c2ccc(N3CCOCC3)cc2)c1 [ASAP-0000115]
perc_inhibition_mean ([1]; concentration 50.0 uM): -12.336%
inhibition at 50 µM ([2]; read-out: perc_inhibition_mean, batch_name=ASAP-0000115-001): -12.3%

Cn1cnc(C(=O)N(CCC(=O)N2CCNCC2)Cc2cccc(Cl)c2)n1 [ASAP-0000331]
perc_inhibition_mean ([1]; concentration 49.75 uM, n=2): -1.441%
perc_inhibition_mean ([1]; concentration 99.5 uM, n=2): -0.25%
inhibition at 49.75 µM [2, 13]: -1.44%
inhibition at 99.5 µM [2, 13]: -0.25%
